Converted amounts (≈) assume the structure as drawn.
What was measured:
[1] = test system: Klebsiella pneumoniae PCI-602; assay: Antibacterial spectrum, MIC by twofold agar dilution method; type: cell-based; conditions: PCI602, 10^6 cfu/ml, standard laboratory strain, Gram -, 18 hrs at 37° C, read-out: MIC
Method: (§1) Minimum inhibitory concentrations (MIC) of test compounds were determined by the twofold agar dilution method (Chemotherapy, 29(1), 76(1981)). Overnight cultures in Mueller-Hinton broth were suspended by buffered saline gelatin. One loopful of the bacterial suspension (10^6 or 10^8 colony-forming units/ml) was incubated onto the plates containing test compounds. The plates were incubated for 18 hrs at 37° C. The MIC was defined by the lowest concentration of the drug that inhibited visible growth of bacteria.

Male mice of ddY strain [2] = assay: Acute toxicity (i.v.); type: in vivo; conditions: 270 mg/kg (i.v.)
Method: Male mice of ddY strain, 4 weeks old, were used. Test compounds were solved in 0.1N--NaOH solution and neutralized with 0.1N--HCl solution. Each compound was administered intravenously (i.v.) at a dose of 270 mg/kg. […]

Male mice of ddY strain [3] = assay: Convulsion inducing activity in combination with fenbufen; conditions: 30 min after fenbufen 100 mg/kg orally
Method: Male mice of ddY strain, 5 weeks old, were used. Fenbufen suspended in 0.5% carboxymethyl cellulose was administered orally at a dose of 100 mg/kg. After thirty minutes, test compounds suspended in 0.5% carboxymethyl cellulose were injected intraperitoneally (i.p.) at a dose of 100 mg/kg or 300 mg/kg.

[4] = test system: Serratia marcescens HNR 1792; assay: Antibacterial spectrum, MIC by twofold agar dilution method; type: cell-based; conditions: HNR1792, 10^6 cfu/ml, clinically isolated strain, Gram -, 18 hrs at 37° C
Method: as §1, with “Overnight” for “Minimum inhibitory concentrations (MIC) of test compounds were determined by the twofold agar dilution method (Chemotherapy, 29(1), 76(1981)). Overnight”

Enterobacter cloacae 963 = assay: as above; type: cell-based; conditions: 10^6 cfu/ml, standard laboratory strain, Gram -, 18 hrs at 37° C
Method: as §1, with “Overnight” for “Minimum inhibitory concentrations (MIC) of test compounds were determined by the twofold agar dilution method (Chemotherapy, 29(1), 76(1981)). Overnight”

[5] = test system: Serratia marcescens IAM 1184; assay: as above; type: cell-based; conditions: IAM1184, 10^6 cfu/ml, standard laboratory strain, Gram -, 18 hrs at 37° C
Method: as §1, with “Overnight” for “Minimum inhibitory concentrations (MIC) of test compounds were determined by the twofold agar dilution method (Chemotherapy, 29(1), 76(1981)). Overnight”

[6] = test system: Klebsiella pneumoniae HNR 869; assay: as above; type: cell-based; conditions: HNR869, 10^6 cfu/ml, clinically isolated strain, Gram -, 18 hrs at 37° C
Method: as §1, with “Overnight” for “Minimum inhibitory concentrations (MIC) of test compounds were determined by the twofold agar dilution method (Chemotherapy, 29(1), 76(1981)). Overnight”

[7] = test system: Enterococcus faecalis HPC 948; assay: as above; type: cell-based; conditions: HPC948, 10^6 cfu/ml, clinically isolated strain, Gram +, 18 hrs at 37° C
Method: as §1, with “Overnight” for “Minimum inhibitory concentrations (MIC) of test compounds were determined by the twofold agar dilution method (Chemotherapy, 29(1), 76(1981)). Overnight”

[8] = test system: Staphylococcuss aureus HPC 292; assay: as above; type: cell-based; conditions: 10^6 cfu/ml; clinically isolated strain, Gram +; 18 hrs at 37° C; read-out: MIC
Method: as §1, with “Overnight” for “Minimum inhibitory concentrations (MIC) of test compounds were determined by the twofold agar dilution method (Chemotherapy, 29(1), 76(1981)). Overnight”

[9] = test system: Staphylococuss aureus FDA 209PJC-1; assay: as above; type: cell-based; conditions: 10^6 cfu/ml; standard laboratory strain, Gram +; 18 hrs at 37° C
Method: as §1, with “Overnight” for “Minimum inhibitory concentrations (MIC) of test compounds were determined by the twofold agar dilution method (Chemotherapy, 29(1), 76(1981)). Overnight”

[10] = test system: Klebsiella pneumoniae HNR 828; assay: as above; type: cell-based; conditions: HNR828, 10^6 cfu/ml, clinically isolated strain, Gram -, 18 hrs at 37° C
Method: as §1, with “Overnight” for “Minimum inhibitory concentrations (MIC) of test compounds were determined by the twofold agar dilution method (Chemotherapy, 29(1), 76(1981)). Overnight”

[11] = test system: Enterococcus faecalis HPC 984; assay: as above; type: cell-based; conditions: HPC984, 10^6 cfu/ml, clinically isolated strain, Gram +, 18 hrs at 37° C
Method: as §1, with “Overnight” for “Minimum inhibitory concentrations (MIC) of test compounds were determined by the twofold agar dilution method (Chemotherapy, 29(1), 76(1981)). Overnight”

[12] = test system: Acinetobacter calcoaceticus HNR 916; assay: as above; type: cell-based; conditions: HNR916, 10^6 cfu/ml, clinically isolated strain, Gram -, 18 hrs at 37° C
Method: as §1, with “Overnight” for “Minimum inhibitory concentrations (MIC) of test compounds were determined by the twofold agar dilution method (Chemotherapy, 29(1), 76(1981)). Overnight”

[13] = test system: Enterococcus faecalis HPC 975; assay: as above; type: cell-based; conditions: HPC975, 10^6 cfu/ml, clinically isolated strain, Gram +, 18 hrs at 37° C
Method: as §1, with “Overnight” for “Minimum inhibitory concentrations (MIC) of test compounds were determined by the twofold agar dilution method (Chemotherapy, 29(1), 76(1981)). Overnight”

[14] = test system: Pseudomonas aeruginosa HNR 1537; assay: as above; type: cell-based; conditions: HNR1537, 10^6 cfu/ml, clinically isolated strain, Gram -, 18 hrs at 37° C
Method: as §1, with “Overnight” for “Minimum inhibitory concentrations (MIC) of test compounds were determined by the twofold agar dilution method (Chemotherapy, 29(1), 76(1981)). Overnight”

[15] = test system: Escherichia coli NIHJ JC-2; assay: as above; type: cell-based; conditions: NIHJJC2, 10^6 cfu/ml, standard laboratory strain, Gram -, 18 hrs at 37° C
Method: as §1, with “Overnight” for “Minimum inhibitory concentrations (MIC) of test compounds were determined by the twofold agar dilution method (Chemotherapy, 29(1), 76(1981)). Overnight”

[16] = test system: Serratia marcescens HNR 1544; assay: as above; type: cell-based; conditions: HNR1544, 10^6 cfu/ml, clinically isolated strain, Gram -, 18 hrs at 37° C
Method: as §1, with “Overnight” for “Minimum inhibitory concentrations (MIC) of test compounds were determined by the twofold agar dilution method (Chemotherapy, 29(1), 76(1981)). Overnight”

[17] = test system: Enterobacter cloacae HNR 1946; assay: as above; type: cell-based; conditions: HNR1946, 10^6 cfu/ml, clinically isolated strain, Gram -, 18 hrs at 37° C
Method: as §1, with “Overnight” for “Minimum inhibitory concentrations (MIC) of test compounds were determined by the twofold agar dilution method (Chemotherapy, 29(1), 76(1981)). Overnight”

[18] = test system: Pseudomonas aeruginosa HNR 1472; assay: as above; type: cell-based; conditions: HNR1472, 10^6 cfu/ml, clinically isolated strain, Gram -, 18 hrs at 37° C
Method: as §1, with “Overnight” for “Minimum inhibitory concentrations (MIC) of test compounds were determined by the twofold agar dilution method (Chemotherapy, 29(1), 76(1981)). Overnight”

[19] = test system: Pseudomonas aeruginosa IFO 3445; assay: as above; type: cell-based; conditions: IFO3445, 10^6 cfu/ml, standard laboratory strain, Gram -, 18 hrs at 37° C
Method: as §1, with “Overnight” for “Minimum inhibitory concentrations (MIC) of test compounds were determined by the twofold agar dilution method (Chemotherapy, 29(1), 76(1981)). Overnight”

[20] = test system: Pseudomonas aeruginosa HNR 1489; assay: as above; type: cell-based; conditions: HNR1489, 10^6 cfu/ml, clinically isolated strain, Gram -, 18 hrs at 37° C
Method: as §1, with “Overnight” for “Minimum inhibitory concentrations (MIC) of test compounds were determined by the twofold agar dilution method (Chemotherapy, 29(1), 76(1981)). Overnight”

[21] = test system: Staphylococcuss aureus HPC 527; assay: as above; type: cell-based; conditions: 10^6 cfu/ml; clinically isolated strain, Gram +; 18 hrs at 37° C
Method: as §1, with “Overnight” for “Minimum inhibitory concentrations (MIC) of test compounds were determined by the twofold agar dilution method (Chemotherapy, 29(1), 76(1981)). Overnight”

[22] = test system: Acinetobacter calcoaceticus HNR 939; assay: as above; type: cell-based; conditions: HNR939, 10^6 cfu/ml, clinically isolated strain, Gram -, 18 hrs at 37° C
Method: as §1, with “Overnight” for “Minimum inhibitory concentrations (MIC) of test compounds were determined by the twofold agar dilution method (Chemotherapy, 29(1), 76(1981)). Overnight”

[23] = test system: Acinetobacter calcoaceticus HNR 904; assay: as above; type: cell-based; conditions: HNR904, 10^6 cfu/ml, clinically isolated strain, Gram -, 18 hrs at 37° C
Method: as §1, with “Overnight” for “Minimum inhibitory concentrations (MIC) of test compounds were determined by the twofold agar dilution method (Chemotherapy, 29(1), 76(1981)). Overnight”

[24] = test system: Klebsiella pneumoniae HNR 858; assay: as above; type: cell-based; conditions: HNR858, 10^6 cfu/ml, clinically isolated strain, Gram -, 18 hrs at 37° C
Method: as §1, with “Overnight” for “Minimum inhibitory concentrations (MIC) of test compounds were determined by the twofold agar dilution method (Chemotherapy, 29(1), 76(1981)). Overnight”

[25] = test system: Enterobacter cloacae HNR 1939; assay: as above; type: cell-based; conditions: HNR1939, 10^6 cfu/ml, clinically isolated strain, Gram -, 18 hrs at 37° C
Method: as §1, with “Overnight” for “Minimum inhibitory concentrations (MIC) of test compounds were determined by the twofold agar dilution method (Chemotherapy, 29(1), 76(1981)). Overnight”

[26] = test system: Serratia marcescens HNR 1767; assay: as above; type: cell-based; conditions: HNR1767, 10^6 cfu/ml, clinically isolated strain, Gram -, 18 hrs at 37° C
Method: as §1, with “Overnight” for “Minimum inhibitory concentrations (MIC) of test compounds were determined by the twofold agar dilution method (Chemotherapy, 29(1), 76(1981)). Overnight”

[27] = test system: Enterobacter cloacae HNR 1941; assay: as above; type: cell-based; conditions: HNR1941, 10^6 cfu/ml, clinically isolated strain, Gram -, 18 hrs at 37° C
Method: as §1, with “Overnight” for “Minimum inhibitory concentrations (MIC) of test compounds were determined by the twofold agar dilution method (Chemotherapy, 29(1), 76(1981)). Overnight”

[28] = test system: Staphylococcuss aureus HPC 308; assay: as above; type: cell-based; conditions: 10^6 cfu/ml; clinically isolated strain, Gram +; 18 hrs at 37° C
Method: as §1, with “Overnight” for “Minimum inhibitory concentrations (MIC) of test compounds were determined by the twofold agar dilution method (Chemotherapy, 29(1), 76(1981)). Overnight”

Compound	Number of death/Number of animals (Male mice of ddY strain [2])	Number of convulsion induced/Number of animals (Male mice of ddY strain [3]; 100 mg/kg (i.p.))	Number of convulsion induced/Number of animals (Male mice of ddY strain [3]; 300 mg/kg (i.p.))	MIC [4]	MIC (Enterobacter cloacae 963)	MIC [5]	MIC [6]	MIC [7]	MIC [8]	MIC [9]	MIC [10]	MIC [11]	MIC [12]	MIC [13]	MIC [14]	MIC [15]	MIC [16]	MIC [17]	MIC [18]	MIC [19]	further results
CC1Sc2c(C(=O)O)c(=O)c3cc(F)c(N4CC[C@H](N)C4)c(F)c3n21 (single isomer, unassigned) [Example 27]	4/10	0/6	0/6	1.56 µg/mL (≈ 4.25 µM)	0.05 µg/mL (≈ 0.136 µM)	0.05 µg/mL (≈ 0.136 µM)	0.78 µg/mL (≈ 2.12 µM)	0.78 µg/mL (≈ 2.12 µM)	6.25 µg/mL (≈ 17 µM)	0.025 µg/mL (≈ 0.068 µM)	1.56 µg/mL (≈ 4.25 µM)	0.2 µg/mL (≈ 0.544 µM)	0.1 µg/mL (≈ 0.272 µM)	6.25 µg/mL (≈ 17 µM)	6.25 µg/mL (≈ 17 µM)	0.025 µg/mL (≈ 0.068 µM)	0.05 µg/mL (≈ 0.136 µM)	0.2 µg/mL (≈ 0.544 µM)	3.13 µg/mL (≈ 8.52 µM)	0.1 µg/mL (≈ 0.272 µM)	MIC [1]: ≤ 0.003 µg/mL; MIC [20]: 0.1 µg/mL (≈ 0.272 µM); MIC [21]: 0.05 µg/mL (≈ 0.136 µM); MIC [22]: 1.56 µg/mL (≈ 4.25 µM); MIC [23]: 25 µg/mL (≈ 68 µM); MIC [24]: 0.2 µg/mL (≈ 0.544 µM); MIC [25]: 0.2 µg/mL (≈ 0.544 µM); MIC [26]: 6.25 µg/mL (≈ 17 µM)
CC1Sc2c(C(=O)O)c(=O)c3cc(F)c(N4CC[C@H](N)C4)c(Cl)c3n21 (single isomer, unassigned) [Example 29]	3/10	0/6	0/6	0.78 µg/mL (≈ 2.03 µM)	0.025 µg/mL (≈ 0.0651 µM)	0.1 µg/mL (≈ 0.261 µM)	0.39 µg/mL (≈ 1.02 µM)	0.78 µg/mL (≈ 2.03 µM)	6.25 µg/mL (≈ 16.3 µM)	0.05 µg/mL (≈ 0.13 µM)	1.56 µg/mL (≈ 4.06 µM)	0.2 µg/mL (≈ 0.521 µM)	0.1 µg/mL (≈ 0.261 µM)	6.25 µg/mL (≈ 16.3 µM)	3.13 µg/mL (≈ 8.15 µM)	0.025 µg/mL (≈ 0.0651 µM)	0.05 µg/mL (≈ 0.13 µM)	0.2 µg/mL (≈ 0.521 µM)	3.13 µg/mL (≈ 8.15 µM)	0.1 µg/mL (≈ 0.261 µM)	MIC [27]: 1.56 µg/mL (≈ 4.06 µM); MIC [20]: 0.2 µg/mL (≈ 0.521 µM); MIC [21]: 0.05 µg/mL (≈ 0.13 µM); MIC [22]: 1.56 µg/mL (≈ 4.06 µM); MIC [28]: 0.78 µg/mL (≈ 2.03 µM); MIC [24]: 0.2 µg/mL (≈ 0.521 µM); MIC [25]: 0.2 µg/mL (≈ 0.521 µM); MIC [26]: 3.13 µg/mL (≈ 8.15 µM)

Source: US5126337A, “Thiazetoquinoline-3-carboxylic acid derivative and a pharmaceutical composition comprising the same” (priority 1989, dated 1992)
